These results are taken from article PMC10730845, “Endoxifen downregulates AKT phosphorylation through protein kinase C beta 1 inhibition in ERα+ breast cancer” (NPJ Breast Cancer, 2023).

For series [1], the system named is AKT phosphorylation in T47D cells. As to the kind of experiment: Immunoblot of AKT phosphorylation, serum starved T47D. The format is cell-based, human. Conditions: not at 0.01 or 0.10 µM. The protocol:
The ENDX hydrochloride utilized in this study was synthesized in collaboration between Mayo Clinic and National Institute of Health (NIH). Estrogen deprived MCF7AC1 were treated with vehicle control or ENDX (National Cancer Institute) for 24 h. For the phorbol 12-myristate 13-acetate (PMA) (LC Laboratories, #P-1680) experiments, MCF7AC1 cells were maintained in serum-free medium for 24 h prior to pretreatment with vehicle or ENDX for 2 h followed by treatment with 20 or 200 nM PMA for 20 min. For the insulin (Sigma-Aldrich, #I0516) experiments, MCF7AC1 and T47D cells were maintained in serum-free medium for 24 h prior to pretreatment with vehicle control or drugs for 2 h followed by treatment with 100 nM insulin for 1 h.
Protein lysates were prepared using the RIPA lysis buffer system (ChemCruz #sc-24948) and quantified using the DC^TM Protein Assay reagents (Bio-Rad #5000112). Equal amounts of protein lysates were separated on 10% Criterion gels (Bio-Rad #3450112), transferred to PVDF membranes (Bio-Rad #1620177), blocked in TBST-5% milk and probed with primary antibodies listed in Supplementary Table 5, at the indicated dilutions. Membranes were incubated with HRP-conjugated anti-rabbit (CST #7074) or anti-mouse (CST #7076) secondary antibodies and visualized using chemiluminescent West Pico (Thermo Scientific #34580) or West Femto (Thermo Scientific #34096) reagents and a Li-Cor Odyssey® XF imager. […] Quantitation of the protein bands signal intensity was performed using the NIH ImageJ image analysis software (https://imagej.nih.gov/ij///index.html). For the quantitation of the phospho protein levels, we first normalized total protein levels to β-actin loading control and used these values to normalize the phospho protein levels and compared change in protein expression levels relative to vehicle control normalized to 1.0. For the quantitation of total protein levels, we normalized the total protein levels to β-actin and compared change in expression levels relative to vehicle control normalized to 1.0. […]
In general terms: A western blot detects proteins with antibodies after separation by electrophoresis.

In series [2] the target is PKC iota (PKCi) (Homo sapiens, UniProt P41743). As to the kind of experiment: In vitro kinase assay, PKC iota. The format is biochemical. The settings on record: 10 μM ATP. The text has this:
(§1) Supplementary Table 4. In vitro kinase assay showing the IC 50 concentration of ENDX and
(§2) of the 12 PKC family members.
(§3) (1 picture or pasted object on this page, not shown here)

The conditions of series [3]: cited from earlier work.
The conditions of series [4]: mice, cited from earlier work; for Cmax: read-out: Plasma Cmax.
The target of series [5] is PKC nu (PKCn/PRKD3) (Homo sapiens, UniProt O94806). In words: In vitro kinase assay, PKC nu. The format is biochemical. Conditions: 10 μM ATP.
Sequence of PKC nu (PKCn/PRKD3) (O94806 whole entry): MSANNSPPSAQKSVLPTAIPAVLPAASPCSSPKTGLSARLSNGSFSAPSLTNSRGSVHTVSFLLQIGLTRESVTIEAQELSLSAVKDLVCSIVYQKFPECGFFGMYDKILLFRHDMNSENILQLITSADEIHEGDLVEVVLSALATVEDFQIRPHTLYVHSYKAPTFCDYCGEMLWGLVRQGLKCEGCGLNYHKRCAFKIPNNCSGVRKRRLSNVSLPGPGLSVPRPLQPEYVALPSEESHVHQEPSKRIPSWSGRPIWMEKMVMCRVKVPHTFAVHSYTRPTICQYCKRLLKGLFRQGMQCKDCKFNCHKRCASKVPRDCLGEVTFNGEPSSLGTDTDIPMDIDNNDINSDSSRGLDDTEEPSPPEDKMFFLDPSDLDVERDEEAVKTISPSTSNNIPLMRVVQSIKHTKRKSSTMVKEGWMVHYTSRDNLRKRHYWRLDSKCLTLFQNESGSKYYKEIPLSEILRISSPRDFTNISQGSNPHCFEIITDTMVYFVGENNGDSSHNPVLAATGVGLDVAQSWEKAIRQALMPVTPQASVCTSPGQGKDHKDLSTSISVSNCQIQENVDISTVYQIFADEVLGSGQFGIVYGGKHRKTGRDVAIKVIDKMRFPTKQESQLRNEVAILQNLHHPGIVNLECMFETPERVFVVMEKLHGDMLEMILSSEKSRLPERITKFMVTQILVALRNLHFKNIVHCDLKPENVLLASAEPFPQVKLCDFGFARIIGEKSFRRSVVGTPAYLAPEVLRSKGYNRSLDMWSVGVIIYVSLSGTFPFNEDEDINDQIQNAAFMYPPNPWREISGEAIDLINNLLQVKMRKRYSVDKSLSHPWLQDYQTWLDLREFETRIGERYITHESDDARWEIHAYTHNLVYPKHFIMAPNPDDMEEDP
Excerpt: as §1, §2, §3

The test system of series [6] is PKCβ1 and AKT^Ser473 phosphorylation in MDAMB231 cells. In words: Immunoblot of PKCβ1 and pAKT^Ser473, MDAMB231. The format is cell-based, human. The settings on record: 5 µM, 2 h pretreatment, 100 nM insulin 1 h. The source says: To determine whether the observed effects of ENDX on PKCβ1 degradation and AKT^Ser473 phosphorylation inhibition are dependent on the presence of ERα, we additionally evaluated ENDX effects on PKCβ1 degradation and AKT^Ser473 phosphorylation in the ER negative (ER-) MDAMB231 breast cancer cells and nonbreast HEK293F cells, a human embryonic kidney cell line, both of which express higher amounts of PKCβ1 compared to ERα+ MCF7AC1 cells (Supplementary Fig. 5a). […] To determine whether the addition of ERα to the MDAMB231 cell line could facilitate ENDX effects on PKCβ1, we performed doxycycline (dox)-induced ERα protein expression in MDAMB231 cells and evaluated ENDX effects on PKCβ1 using the above-mentioned experimental conditions. […] Additionally, we pretreated MDAMB231 and HEK293F cells with or without 5 µM ENDX for 1 h followed by 0 or 200 nM PMA treatment for 20 min and evaluated effects on PKCβ1.
Supplementary Figure 5. Effects of ENDX on PKCβ1, phospho -PKCB1Ser661 and phospho-AKTSer473 expression levels in ERα- breast cancer cells. a, Basal expression of PKCβ1 and ERα in the indicated cell lines. […]

In series [7] the test system is MDAMB231 cells. In words: IncuCyte Annexin V apoptosis assay, MDAMB231. The format is cell-based, human. Conditions: CSS medium, 48 h, 0–10 µM tested; no apoptosis below the highest concentration. The protocol:
Supplementary Figure 8. ENDX neither induces apoptosis nor inhibit growth of ER - breast cancer cells. a, MDAMB231 cells grown in CSS medium were co -treated with vehicle control or the indicated ENDX concentrations, IncuCyte Annexin V green and NucLight red reagents in CSS medium for 48 hours. The apoptosis graphs are presented as the green object count […]
software. Cells were plated at a density of 2000 cells per well. Data represents the mean of six

In series [8] the test system is ERα+/HER2- metastatic breast cancer. The settings on record: cited from earlier work.

Where “and” joins values, the source holds several entries; their conditions need not be identical. Equal entries are not always repeated. Where two headings read alike, the source gives them in different places. A value given as a limit tells only on which side of the number the result lay.

Sequence of PKC iota (PKCi) (P41743 whole entry): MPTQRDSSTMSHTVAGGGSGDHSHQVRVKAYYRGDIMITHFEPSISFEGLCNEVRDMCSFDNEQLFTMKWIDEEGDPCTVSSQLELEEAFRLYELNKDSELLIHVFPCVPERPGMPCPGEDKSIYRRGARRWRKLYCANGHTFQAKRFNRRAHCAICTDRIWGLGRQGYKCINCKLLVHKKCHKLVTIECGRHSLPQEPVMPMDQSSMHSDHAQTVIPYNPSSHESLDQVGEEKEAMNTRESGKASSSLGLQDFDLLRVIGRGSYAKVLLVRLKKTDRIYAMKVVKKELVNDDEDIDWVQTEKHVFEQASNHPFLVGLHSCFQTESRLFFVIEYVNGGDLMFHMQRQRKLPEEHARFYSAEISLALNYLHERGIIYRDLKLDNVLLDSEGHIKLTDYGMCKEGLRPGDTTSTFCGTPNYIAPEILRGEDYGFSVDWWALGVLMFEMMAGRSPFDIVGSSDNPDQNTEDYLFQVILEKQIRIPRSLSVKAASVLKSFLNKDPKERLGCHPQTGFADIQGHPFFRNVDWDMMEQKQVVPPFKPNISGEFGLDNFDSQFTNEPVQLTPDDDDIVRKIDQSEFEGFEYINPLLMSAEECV

Usually IC50 stands for the concentration at which inhibition is half-maximal. A lower IC50 goes with higher potency. In general, Cmax refers to the peak of the concentration-time curve. As to `CC/C(=C(\c1ccc(O)cc1)c1ccc(OCCNC)cc1)c1ccccc1` [ENDX, Z-endoxifen], the “Concentration blocking insulin-stimulated AKT^Ser473 phosphorylation” value in series [1] is 5 µM. Besides, the results for the IC50 in series [2] and in series [5] were more than 50 µM and 26.4 µM, respectively. In addition, in series [3] (intact rats), the “Effect on uterine weight and epithelial cell height” value is “substantially lowered uterine weight and increased epithelial cell height”. For the same compound, the Uterotrophic potency result in series [3] (ovariectomized Sprague-Dawley rats) is given as “less potent than estradiol in eliciting uterotrophic effects”. For the same compound, the Plasma concentration in series [4] (25 mg/kg for five consecutive days, 25 mg/kg) is 73.1 ± 16.8 ng/ml and 0.20 ± 0.04 µM; in series [4] (100 mg/kg for five consecutive days, 100 mg/kg), 1700 ± 60 ng/ml and 4.55 ± 0.16 µM. Also, the results for the “Plasma Cmax” value in series [4] (single dose 25 mg/kg) and in series [4] (single dose 75 mg/kg) were 103 ± 97 ng/mL and 660 ± 511 ng/mL, respectively. For the same compound, the Cmax in series [4] (single dose 25 mg/kg) was 280 ± 260 nM; in series [4] (single dose 75 mg/kg), 1770 ± 1370 nM. The “Effect on PKCβ1 protein levels” value in series [6] is given as “did not impact PKCβ1 protein levels”. In series [6], the “Effect on insulin induced AKT^Ser473 phosphorylation” value was “did not inhibit this phosphorylation”. The “Concentration at which apoptosis was induced” value in series [7] stood at 10 µM. In addition, in series [8] (95% CI 0.22–0.80), the “PFS hazard ratio (HR) ENDX vs TAM, CDK4/6i naïve patients” value is reported as 0.42. Further, in series [8] (95% CI 0.49–1.22), the “PFS hazard ratio (HR) ENDX vs TAM, overall” value was 0.77. Besides, the “PFS in CDK4/6 inhibitor naïve patients” value in series [8] (CDK4/6i naïve) is given as 7.2 m. In addition, in series [8] (women with ERα+/HER2- metastatic breast cancer progressed on endocrine therapy), the “Progression free survival (PFS) overall” value is given as 4.3 m.
